Experimental data taken from ChEMBL document CHEMBL1201862, “PubChem BioAssay data set” (2004).
The source made the active and inactive calls.

Tests used:
[1] = reduction of Shn3 3'UTR-driven luciferase in osteoblasts – cell-based, Clone20 osteoblasts, firefly luciferase, cherry-picked, dose response (AID 624132); type: functional;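 further: firefly luciferase luminescence from reporter carrying the Shn3 3'UTR in osteoblasts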
[2] = loss of viability in HepG2 cells – cell-based, CellTiter-Glo, cherry-picked, cytotoxicity control for Shn3 inhibitor project, dose response (AID 624134); type: functional
[3] = non-specific 3'UTR reporter inhibition in Clone20-Shn3RL – cell-based, Renilla luciferase, cherry-picked, counter-screen for Shn3 inhibitor project, dose response (AID 624133); type: functional
Paired box protein Pax-8 = Paired box protein Pax-8 (Homo sapiens, UniProt Q06710); experiment: PAX8 transcriptional activity inhibition in RMG-I – RMG-I cells, luciferase, cherry-pick, dose response (AID 687027); type: functional, cell-based;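 further: luciferase reporter driven by Pax8 target thyroperoxidase promoter measured by SteadyGlo luminescence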
Chain of Paired box protein Pax-8 (Q06710 whole entry): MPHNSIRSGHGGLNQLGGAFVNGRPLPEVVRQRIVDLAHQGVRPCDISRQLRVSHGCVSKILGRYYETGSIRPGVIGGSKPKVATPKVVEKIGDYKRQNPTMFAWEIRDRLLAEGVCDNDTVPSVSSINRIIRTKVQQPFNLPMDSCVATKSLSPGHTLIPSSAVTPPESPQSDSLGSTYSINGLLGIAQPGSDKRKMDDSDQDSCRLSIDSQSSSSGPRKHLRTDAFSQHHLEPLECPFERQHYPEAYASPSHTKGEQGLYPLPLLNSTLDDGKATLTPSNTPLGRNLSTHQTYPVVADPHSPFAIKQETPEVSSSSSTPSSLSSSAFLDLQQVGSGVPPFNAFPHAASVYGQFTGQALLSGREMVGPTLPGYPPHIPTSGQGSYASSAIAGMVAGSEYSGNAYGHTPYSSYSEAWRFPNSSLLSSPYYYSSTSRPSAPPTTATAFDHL

[4] = test system: Streptococcus sp. 'group A'; experiment: Streptococcus pyogenes SK(-)GAS viability under kanamycin – luminescence, BacTiterGlo, confirmation, counter-screen for streptokinase expression inhibitor project, dose response (AID 1900); type: functional, organism-based
Streptokinase A = target: T1, Streptokinase A (Streptococcus pyogenes serotype M1, UniProt P10520); experiment: viability-normalized secreted streptokinase activity reduction – plasminogen activation absorbance, OD405, dose response (AID 1914); type: functional, Streptococcus pyogenes M1 GAS;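 further: secreted streptokinase activity via plasminogen activation per viability signal from cell pellet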
T1 sequence (P10520 whole entry): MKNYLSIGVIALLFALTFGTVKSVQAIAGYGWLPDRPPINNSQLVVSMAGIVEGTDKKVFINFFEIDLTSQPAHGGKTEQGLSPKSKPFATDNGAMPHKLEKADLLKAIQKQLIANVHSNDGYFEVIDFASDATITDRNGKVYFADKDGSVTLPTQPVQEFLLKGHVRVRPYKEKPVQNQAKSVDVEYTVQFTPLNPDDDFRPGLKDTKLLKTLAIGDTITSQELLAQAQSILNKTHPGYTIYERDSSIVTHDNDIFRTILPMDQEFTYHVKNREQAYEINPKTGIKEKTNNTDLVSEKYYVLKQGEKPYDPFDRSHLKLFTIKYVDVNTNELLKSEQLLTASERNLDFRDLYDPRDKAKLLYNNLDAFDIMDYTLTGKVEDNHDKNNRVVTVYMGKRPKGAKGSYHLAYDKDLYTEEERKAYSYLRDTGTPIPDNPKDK

Streptococcus = experiment: GAS UMAA2166 growth inhibition – luminescence, BacTiterGlo, counter-screen for streptokinase expression inhibitor project, dose response (AID 1915); type: functional, organism-based;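 further: potency for reduction of bacterial viability or growth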
[5] = target: T2, Microphthalmia-associated transcription factor (Homo sapiens, UniProt O75030); experiment: reducers of TRPM1 reporter luminescence, concentration series – cell-based, SK-MEL-5, cherry-picked, set 3, MITF inhibitor project, dose response (AID 493073); type: functional;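 further: SK-MEL-5 melanoma cells with luciferase driven by the MITF target TRPM1 promoter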
T2 sequence (O75030 whole entry): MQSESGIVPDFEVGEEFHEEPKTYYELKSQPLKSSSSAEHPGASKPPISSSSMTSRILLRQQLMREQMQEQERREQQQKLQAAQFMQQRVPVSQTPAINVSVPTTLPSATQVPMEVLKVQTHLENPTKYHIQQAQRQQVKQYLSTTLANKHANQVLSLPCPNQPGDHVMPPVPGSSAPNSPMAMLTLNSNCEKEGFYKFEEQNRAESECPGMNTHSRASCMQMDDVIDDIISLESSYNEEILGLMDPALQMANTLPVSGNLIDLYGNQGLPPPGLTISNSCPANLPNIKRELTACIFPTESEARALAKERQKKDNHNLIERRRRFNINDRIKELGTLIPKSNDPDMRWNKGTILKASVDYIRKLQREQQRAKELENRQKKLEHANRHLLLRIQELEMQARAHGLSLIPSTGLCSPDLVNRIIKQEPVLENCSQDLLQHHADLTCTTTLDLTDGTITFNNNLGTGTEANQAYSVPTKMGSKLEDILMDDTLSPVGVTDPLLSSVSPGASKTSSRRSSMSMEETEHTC

[6] = target: T3, Endoribonuclease toxin MazF (Escherichia coli K-12, UniProt P0AE70); experiment: activation of MazEF endoribonuclease cleavage – biochemical, fluorescence, single-stranded RNA substrate, uHTS hits, dose response (AID 588481); type: functional
T3 sequence (P0AE70 whole entry): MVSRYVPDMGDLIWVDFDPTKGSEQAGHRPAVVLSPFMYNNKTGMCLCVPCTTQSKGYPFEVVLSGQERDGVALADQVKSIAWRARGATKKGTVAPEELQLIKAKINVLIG

[7] = target: T3, Endoribonuclease toxin MazF; experiment: substrate-only fluorescence increase artefacts – biochemical, single-stranded RNase substrate, counter-screen for MazEF activator project, dose response (AID 588502); type: functional
Leucine aminopeptidase = target: T4, Leucine aminopeptidase (Plasmodium falciparum 3D7, UniProt Q8IL11); experiment: P. falciparum M17LAP inhibitors, primary screen, biochemical, fluorogenic H-Leu-NHMec substrate, 1536-well (AID 1619); type: functional
T4 sequence (Q8IL11 whole entry): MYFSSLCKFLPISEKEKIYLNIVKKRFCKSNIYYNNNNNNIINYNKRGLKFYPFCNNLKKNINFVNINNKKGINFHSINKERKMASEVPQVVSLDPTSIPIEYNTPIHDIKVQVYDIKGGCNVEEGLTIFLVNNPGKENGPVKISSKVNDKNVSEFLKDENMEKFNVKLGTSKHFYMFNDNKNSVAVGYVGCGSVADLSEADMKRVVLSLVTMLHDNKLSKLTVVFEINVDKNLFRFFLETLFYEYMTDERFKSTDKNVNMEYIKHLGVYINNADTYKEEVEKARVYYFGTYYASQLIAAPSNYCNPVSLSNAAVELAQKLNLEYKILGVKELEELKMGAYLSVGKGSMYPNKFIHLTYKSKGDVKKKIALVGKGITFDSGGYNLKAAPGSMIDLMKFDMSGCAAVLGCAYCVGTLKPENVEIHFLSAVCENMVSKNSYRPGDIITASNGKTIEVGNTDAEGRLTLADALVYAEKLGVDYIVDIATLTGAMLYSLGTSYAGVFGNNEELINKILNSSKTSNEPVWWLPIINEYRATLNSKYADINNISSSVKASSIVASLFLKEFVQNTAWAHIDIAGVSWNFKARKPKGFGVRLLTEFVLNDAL

[8] = target: T5, DNA repair protein RAD52 homolog (Homo sapiens, UniProt P43351); type: functional, biochemical
T5 sequence (P43351 whole entry): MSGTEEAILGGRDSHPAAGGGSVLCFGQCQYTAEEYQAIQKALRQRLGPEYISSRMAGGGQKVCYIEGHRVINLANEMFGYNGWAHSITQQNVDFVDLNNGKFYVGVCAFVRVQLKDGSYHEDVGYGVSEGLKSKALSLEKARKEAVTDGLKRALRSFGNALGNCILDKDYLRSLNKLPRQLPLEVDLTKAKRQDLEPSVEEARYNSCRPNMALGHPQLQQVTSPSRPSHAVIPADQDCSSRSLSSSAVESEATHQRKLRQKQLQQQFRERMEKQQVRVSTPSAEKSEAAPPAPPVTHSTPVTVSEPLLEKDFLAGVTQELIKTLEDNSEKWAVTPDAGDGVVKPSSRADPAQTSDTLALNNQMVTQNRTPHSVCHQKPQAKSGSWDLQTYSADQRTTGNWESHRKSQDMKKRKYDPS

[9] = target: T6, Replicative DNA helicase DnaB (Mycobacterium tuberculosis, UniProt P9WMR3); experiment: DnaB intein splicing inhibitors, dose response, biochemical, cell-free fluorescence (AID 449749); type: functional
T6 sequence (P9WMR3 whole entry): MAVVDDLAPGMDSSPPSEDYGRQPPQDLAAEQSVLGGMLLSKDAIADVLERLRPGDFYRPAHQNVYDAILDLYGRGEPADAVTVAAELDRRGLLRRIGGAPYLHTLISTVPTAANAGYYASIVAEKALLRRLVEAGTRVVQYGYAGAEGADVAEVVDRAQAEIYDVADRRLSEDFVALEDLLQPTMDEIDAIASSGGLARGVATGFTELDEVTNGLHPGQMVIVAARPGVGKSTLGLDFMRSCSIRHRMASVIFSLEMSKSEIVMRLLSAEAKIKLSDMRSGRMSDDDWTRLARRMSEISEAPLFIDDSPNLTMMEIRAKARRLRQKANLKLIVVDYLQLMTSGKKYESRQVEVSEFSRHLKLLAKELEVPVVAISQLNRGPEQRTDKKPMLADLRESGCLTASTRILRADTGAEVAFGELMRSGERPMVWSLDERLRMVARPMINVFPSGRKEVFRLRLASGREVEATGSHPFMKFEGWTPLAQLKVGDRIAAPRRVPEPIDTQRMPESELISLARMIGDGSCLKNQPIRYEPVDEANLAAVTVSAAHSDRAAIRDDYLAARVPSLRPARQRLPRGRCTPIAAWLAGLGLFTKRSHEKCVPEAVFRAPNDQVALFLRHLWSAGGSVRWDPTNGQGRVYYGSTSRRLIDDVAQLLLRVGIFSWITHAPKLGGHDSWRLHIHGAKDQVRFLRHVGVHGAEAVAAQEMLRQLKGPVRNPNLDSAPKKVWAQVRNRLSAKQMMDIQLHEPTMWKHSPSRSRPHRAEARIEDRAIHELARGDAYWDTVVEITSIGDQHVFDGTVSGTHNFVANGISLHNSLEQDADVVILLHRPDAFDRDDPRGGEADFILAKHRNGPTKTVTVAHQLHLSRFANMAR

Protein RecA = target: T7, Protein RecA (Mycobacterium tuberculosis, UniProt P9WHJ3); experiment: Fluorescence Cell-Free Homogeneous Dose Retest to Identify Inhibitors of RecA-Intein Splicing Activity. [Related pubchem assays (depositor defined):AID2097, AID2223, AID489010, AID492950]; type: functional
T7 sequence (P9WHJ3 whole entry): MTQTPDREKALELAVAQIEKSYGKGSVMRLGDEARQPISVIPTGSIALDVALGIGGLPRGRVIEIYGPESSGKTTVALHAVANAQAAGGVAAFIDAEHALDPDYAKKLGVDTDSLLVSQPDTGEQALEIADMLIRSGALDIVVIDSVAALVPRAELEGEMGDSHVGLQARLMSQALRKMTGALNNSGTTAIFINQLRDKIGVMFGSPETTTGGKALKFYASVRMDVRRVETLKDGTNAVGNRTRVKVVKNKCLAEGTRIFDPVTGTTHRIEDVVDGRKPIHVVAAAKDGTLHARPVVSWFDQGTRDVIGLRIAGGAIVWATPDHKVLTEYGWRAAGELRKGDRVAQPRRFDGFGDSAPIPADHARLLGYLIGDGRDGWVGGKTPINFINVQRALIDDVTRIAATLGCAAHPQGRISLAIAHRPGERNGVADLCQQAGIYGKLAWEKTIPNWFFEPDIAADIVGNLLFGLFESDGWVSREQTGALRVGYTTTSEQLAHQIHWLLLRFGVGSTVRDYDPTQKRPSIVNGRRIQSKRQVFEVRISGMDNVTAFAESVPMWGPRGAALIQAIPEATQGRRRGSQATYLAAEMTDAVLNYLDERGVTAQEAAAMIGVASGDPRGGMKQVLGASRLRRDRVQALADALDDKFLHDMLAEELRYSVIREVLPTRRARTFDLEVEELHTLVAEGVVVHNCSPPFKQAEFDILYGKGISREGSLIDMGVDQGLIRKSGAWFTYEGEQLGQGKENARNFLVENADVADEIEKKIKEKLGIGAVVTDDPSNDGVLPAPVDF

[10] = target: T8, RNA-binding protein pos-1 (Caenorhabditis elegans, UniProt G5EF15); experiment: disruptors of C. elegans POS-1 RNA interaction – biochemical, fluorescence polarization, dose response (AID 1964);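 further: purified POS-1 fused to maltose binding protein made in E. coli; potency of compounds blocking POS-1 binding to fluorescent RNA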
T8 sequence (G5EF15 whole entry): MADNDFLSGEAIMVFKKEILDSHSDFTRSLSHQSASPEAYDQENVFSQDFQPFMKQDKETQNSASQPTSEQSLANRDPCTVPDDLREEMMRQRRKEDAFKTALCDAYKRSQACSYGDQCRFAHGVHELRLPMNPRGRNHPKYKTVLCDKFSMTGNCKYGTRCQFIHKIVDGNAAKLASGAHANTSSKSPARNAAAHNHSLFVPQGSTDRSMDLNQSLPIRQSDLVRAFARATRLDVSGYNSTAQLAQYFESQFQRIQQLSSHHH

[11] = target: T9, Zinc finger protein mex-5 (Caenorhabditis elegans, UniProt Q9XUB2); experiment: potency of MEX-5 RNA-binding blockers – biochemical, C. elegans, fluorescence polarization, dose response (AID 1960)
T9 sequence (Q9XUB2 whole entry): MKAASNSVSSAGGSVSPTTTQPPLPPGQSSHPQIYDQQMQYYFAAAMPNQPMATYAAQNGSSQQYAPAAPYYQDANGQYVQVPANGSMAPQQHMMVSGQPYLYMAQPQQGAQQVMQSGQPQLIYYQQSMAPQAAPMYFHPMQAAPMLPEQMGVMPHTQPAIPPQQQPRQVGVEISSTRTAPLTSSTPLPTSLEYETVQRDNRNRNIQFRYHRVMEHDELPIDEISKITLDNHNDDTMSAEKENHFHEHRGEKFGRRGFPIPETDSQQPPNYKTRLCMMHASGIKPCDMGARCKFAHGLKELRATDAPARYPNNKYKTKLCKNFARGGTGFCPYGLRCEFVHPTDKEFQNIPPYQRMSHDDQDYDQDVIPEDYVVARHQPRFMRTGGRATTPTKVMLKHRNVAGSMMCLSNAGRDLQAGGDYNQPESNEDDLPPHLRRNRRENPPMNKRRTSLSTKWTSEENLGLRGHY

CN(C)CC(C(=O)Cc1ccccc1)c1ccccc1 (centres undefined)
AC50 [1]: 7.81 µM (active)
AC50 [2]: 14.5 µM (active)
AC50 [3]: 7.58 µM (active)
AC50 (Paired box protein Pax-8): 1.71 µM (active)

N#C/C(=C(/O)c1ccc([N+](=O)[O-])o1)c1nc2ccccc2[nH]1
EC50 [4]: 3.57 µM (active)
EC50 (Streptokinase A): 27.6 µM (active)
EC50 (Streptococcus): 66 µM (active)
AC50 [5]: 3.8 µM (active)
EC50 [6]: > 99 µM (inactive)
EC50 [7]: 5.53 µM (active)

CC(=O)Nc1nc(C)c(-c2csc(Nc3cccc(C(C)=O)c3)n2)s1
AC50 [5]: 8.38 µM (active)
AC50 [1]: 1.67 µM (active)
AC50 [2]: 21 µM (active)
AC50 [3]: < 0.5 µM (active)

CCOc1ccc(NC(=O)CSc2n[nH]c(N)n2)c([N+](=O)[O-])c1
IC50 (Leucine aminopeptidase): 12.7 µM (active)

COc1nccnc1NS(=O)(=O)c1ccc(/N=C/c2c(C)[nH]n(-c3ccccc3)c2=O)cc1
IC50 (Leucine aminopeptidase): 35 µM (active)

CN1CCN(CCCNc2nc3ccccc3c3nc(-c4ccccc4)nn23)CC1
AC50 [8]: 14.2 µM (active)

O=C(c1ccco1)c1c[nH]nc1-c1ccc(Cl)cc1O
IC50 (Leucine aminopeptidase): 101 µM (active)

N#CC1=C(N)Oc2nc(-c3ccccc3)[nH]c2C1c1cccnc1 (centres undefined)
IC50 (Leucine aminopeptidase): 66.6 µM (active)
AC50 [9]: 11.3 µM (active)
EC50 (Protein RecA): 2.6 µM (active)

CCN1CCN(Cc2c(C(=O)N/N=C(\C)c3ccc(Cl)cc3)nnn2-c2nonc2N)CC1
EC50 [10]: > 300 µM (not active)
EC50 [11]: > 300 µM (not active)
AC50 [8]: 8.73 µM (active)
